Common to all, as to assay type: biochemical
The target of assay [1] is T1, Human PKK (Homo sapiens, UniProt P03952).
T1 construct: purchased Enzyme Research Laboratories
The assay is described as follows: Inhibition of PKK using an endpoint assay. Conditions: fluorogenic substrate H-Pro-Phe-Arg-AMC, 1 h at room temperature. As to the method:
(§1) The ability of compounds of formula (I) to inhibit plasma kallikrein (PKK), Factor XIIa (FXIIa), Factor XIa (FXIa), Factor Xa (FXa), Factor IIa (alpha-thrombin; FIIa), plasmin, trypsin, tissue kallikrein 1 (TK1), Factor Vila (FVIIa), or FVIIa complexed with Tissue Factor, phospholipids and CaCl2 (FVIIa/TF/PL/CaCl2) is determined using the following biochemical assays in assay buffer (100 mM Tris, 150 mM NaCL, adjusted to a pH of 7.8 with HCl, and containing 0.1% (w/v) BSA and 0.05% (v/v) Tween20) in the presence of 1% (v/v) DMSO:
Subsequently, PPACK 11 (Calbiochem) is added as a stop solution to achieve a final concentration of 1 μM and fluorescence is measured using an Envision Reader (PerkinElmer) with the wavelength excitation setting of 355 nm and the wavelength emission setting of 460 nm.

The target of assay [2] is T2, PKK in kaolin activated human platelet poor plasma (Homo sapiens, UniProt P03952).
T2 construct: Platelet poor plasma (PPP) obtained from human wholeblood; from tissue
Put plainly: Inhibition of PKK in kaolin activated human PPP. Conditions: kaolin (25, 75, 250, 750 μg/mL) activated human PPP, global fit. As to the method: Platelet poor plasma (PPP) obtained from human wholeblood, anticoagulated with Na-Citrate, is incubated with various concentrations of the test compound together with either 25, 75, 250, or 750 μg/mL kaolin in assay buffer for 20 min at 37° C. such that for each kaolin dose used a concentration response is obtained for the test compound.

Assay [3] deals with T3, human TK1 (Homo sapiens, UniProt P06870).
T3 construct: purchased R&D Systems
The assay is described as follows: Inhibition of TK1 (Ki). Conditions: activated human TK1, substrate H-Pro-Phe-Arg-AMC, 24° C.; Ki from IC50 corrected for KM. On the procedure:
as §1
Prior to the assay, human TK1 (R&D Systems) is activated by incubation with human trypsin (Calbiochem) in a 1:10,000 ratio for 15 min at 37° C. For assaying TK1 inhibitory activity, activated TK1 (31.25 nM or 1 U/mL) is incubated at 24° C. with 0.1 mM fluorogenic substrate H-Pro-Phe-Arg-AMC (I1295 from Bachem) and various concentrations of the test compound in assay buffer. Measurements are performed in a kinetic interval every 2nd minute for 16 min using a Spectramax M5 (Molecular Devices) with the following settings of the wavelength excitation of 350 nm and wavelength emission of 450 nm.
The pIC50 values are then fitted using a four-parametric fitting procedure using GraphPad Prism (version 6; GraphPad Software, Inc.). […]

T2 sequence (P03952 391-638 limits assumed): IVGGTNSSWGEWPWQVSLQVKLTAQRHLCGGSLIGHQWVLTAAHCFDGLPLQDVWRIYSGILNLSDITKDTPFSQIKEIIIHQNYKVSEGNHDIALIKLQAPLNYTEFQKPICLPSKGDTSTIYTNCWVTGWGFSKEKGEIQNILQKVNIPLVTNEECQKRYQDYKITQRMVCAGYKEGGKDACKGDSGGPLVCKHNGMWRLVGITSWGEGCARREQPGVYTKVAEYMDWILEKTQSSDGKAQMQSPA
T2 sequence (P03952 20-390 partner limits assumed): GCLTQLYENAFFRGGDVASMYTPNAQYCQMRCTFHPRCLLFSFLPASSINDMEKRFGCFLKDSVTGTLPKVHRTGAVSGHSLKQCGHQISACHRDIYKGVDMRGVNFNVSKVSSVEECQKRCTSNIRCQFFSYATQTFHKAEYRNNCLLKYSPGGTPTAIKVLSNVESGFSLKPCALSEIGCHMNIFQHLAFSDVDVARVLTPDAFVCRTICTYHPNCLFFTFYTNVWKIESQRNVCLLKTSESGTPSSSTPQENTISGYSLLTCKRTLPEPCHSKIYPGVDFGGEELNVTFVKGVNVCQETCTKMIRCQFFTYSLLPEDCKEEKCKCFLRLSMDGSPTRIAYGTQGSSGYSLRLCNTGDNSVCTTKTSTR
T1 sequence (P03952 391-638 limits assumed): as the sequence (P03952 391-638 limits assumed) above
T1 sequence (P03952 20-390 partner limits assumed): as the sequence (P03952 20-390 partner limits assumed) above
T3 sequence (P06870 25-262): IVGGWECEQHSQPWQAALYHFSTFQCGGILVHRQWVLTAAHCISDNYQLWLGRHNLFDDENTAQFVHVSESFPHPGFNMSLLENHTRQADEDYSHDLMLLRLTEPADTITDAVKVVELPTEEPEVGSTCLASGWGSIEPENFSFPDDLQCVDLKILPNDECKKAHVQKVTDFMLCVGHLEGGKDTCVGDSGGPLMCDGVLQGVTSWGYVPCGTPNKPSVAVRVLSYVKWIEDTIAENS

Broadly, the IC50 is the concentration that gives 50% inhibition. The IC90 is the point of the concentration-response curve where the effect stands at 90%. A low value points to an effect from little substance. For `Cc1[nH]nc2c1CC[C@H]2NC(=O)c1cnn(Cc2ccc(N3CC4(CC4)C3)nc2C(F)F)c1` [Example 1, 1-[(6-{5-Azaspiro[2.3]hexan-5-yl}-2-(difluoromethyl)pyridin-3-yl)methyl]-N-[(6R)-3-methyl-2H,4H,5H,6H-cyclopenta[c]pyrazol-6-yl]-1H-pyrazole-4-carboxamide], the IC50 in assay [1] was determined as 0.8 nM. Besides, in assay [2], it took 182 nM to reach the 90% level (IC90). The compound `Cc1[nH]nc2c1CC[C@H]2NC(=O)c1cnn(Cc2cnc(N3CC4CC4C3)nc2C(F)F)c1` (stereo partly drawn) [Example 2, 1-[(2-{3-Azabicyclo[3.1.0]hexan-3-yl}-4-(difluoromethyl)-pyrimidin-5-yl)methyl]-N-[(6R)-3-methyl-2H,4H,5H,6H-cyclopenta[c]pyrazol-6-yl]-1H-pyrazole-4-carboxamide] gave a concentration for half-maximal inhibition (IC50) in assay [1] of 1.8 nM. This compound registered a 90% effect concentration (IC90) in assay [2] of 499 nM.

As for `Cc1[nH]nc2c1CC[C@H]2NC(=O)c1cn(Cc2ccc(N3CC4CC4C3)nc2C(F)F)nn1` (stereo partly drawn) [Example 3, 1-[(6-{3-Azabicyclo[3.1.0]hexan-3-yl}-2-(difluoromethyl)-pyridin-3-yl)methyl]-N-[(6R)-3-methyl-2H,4H,5H,6H-cyclo-penta[c]pyrazol-6-yl]-1H-1,2,3-triazole-4-carboxamide], half-maximal inhibition in assay [1] (IC50) was put at 0.9 nM. This compound also came in with a 90% effect concentration (IC90) in assay [2] of 486 nM. In turn, `Cc1[nH]nc2c1CC[C@H]2NC(=O)c1cn(Cc2ccc(N3CC4(CC4)C3)nc2C(F)F)nn1` [Example 4, 1-[(6-{5-Azaspiro[2.3]hexan-5-yl}-2-(difluoromethyl)pyridin-3-yl)methyl]-N-[(6R)-3-methyl-2H,4H,5H,6H-cydopenta[c]-pyrazol-6-yl]-1H-1,2,3-triazole-4-carboxamide] came in with an IC90 in assay [2] of 122 nM. That is a sub-micromolar value.

Turning to `Cc1[nH]nc2c1CC[C@H]2NC(=O)c1cn(Cc2ccc(N3CC4(CC4)C3)nc2C(F)F)cn1` [Example 5, 1-[(6-{5-Azaspiro[2.3]hexan-5-yl}-2-(difluoromethyl)-pyridin-3-yl)methyl]-N-[(6R)-3-methyl-2H,4H,5H,6H-cyclopenta[c]pyrazol-6-yl]-1H-imidazole-4-carboxamide], in assay [2], it took 149 nM to reach the 90% level (IC90). Turning to `Cc1[nH]nc2c1CC[C@H]2NC(=O)c1cn(Cc2ccc(N3CC4CC4C3)nc2C(F)F)cn1` (stereo partly drawn) [Example 6, 1-[(6-{3-Azabicyclo[3.1.0]hexan-3-yl}-2-(difluoromethyl)-pyridin-3-yl)methyl]-N-[(6R)-3-methyl-2H,4H,5H,6H-cyclopenta[c]pyrazol-6-yl]-1H-imidazole-4-carboxamide], the 90% effect concentration (IC90) in assay [2] was found to be 293 nM. This IC90 lies about 2-fold higher than the previous one. The same measure, in the same setting: in the case of `Cc1[nH]nc2c1CC[C@H]2NC(=O)c1cnn(Cc2ccc(N3CC4CC4C3)nc2C(F)F)c1` (stereo partly drawn) [Example 7, 1-[(6-{3-Azabicyclo[3.1.0]hexan-3-yl}-2-(difluoromethyl)-pyridin-3-yl)methyl]-N-[(6R)-3-methyl-2H,4H,5H,6H-cyclopenta[c]pyrazol-6-yl]-1H-pyrazole-4-carboxamide] it was 195 nM.

As to `Cc1[nH]nc2c1CC[C@H]2NC(=O)c1cn(Cc2cnc(N3CC4CC4C3)nc2C(F)F)cn1` (stereo partly drawn) [Example 8, 1-[(2-{3-Azabicyclo[3.1.0]hexan-3-yl}-4-(difluoromethyl)-pyrimidin-5-yl)methyl]-N-[(6R)-3-methyl-2H,4H,5H,6H-cyclopenta[c]pyrazol-6-yl]-1H-imidazole-4-carboxamide], half-maximal inhibition in assay [1] (IC50) was put at 2.1 nM. Further, it took 305 nM to reach the 90% level in assay [2] (IC90). Broadly, the Ki is the dissociation constant of the complex between target and ligand, obtained from inhibition or displacement. Low readings indicate a stronger hold on the target, high ones a looser hold on the target. In the case of `Cc1[nH]nc2c1CC[C@H]2NC(=O)c1cn(Cc2cnc(N3CC4CC4C3)cc2C(F)(F)F)cn1` (stereo partly drawn) [Example 9, 1-[(6-{3-Azabicyclo[3.1.0]hexan-3-yl}-4-(trifluoromethyl)-pyridin-3-yl)methyl]-N-[(6R)-3-methyl-2H,4H,5H,6H-cyclopenta[c]pyrazol-6-yl]-1H-imidazole-4-carboxamide], in assay [3], the Ki was over 10000 nM. This compound also yielded an IC50 in assay [1] of 1.8 nM. The concentration for an effect of 90% (IC90) in assay [2] was determined as 539 nM. On to `Cc1[nH]nc2c1CC[C@H]2NC(=O)c1cnn(Cc2ccc(N3CC4C(C3)C4(F)F)nc2C(F)F)c1` (stereo partly drawn) [Example 10, 1-[(6-{6,6-Difluoro-3-azabicyclo[3.1.0]hexan-3-yl}-2-(difluoromethyl)pyridin-3-yl)methyl]-N-[(6R)-3-methyl-2H,4H,5H,6H-cyclopenta-[c]pyrazol-6-yl]-1H-pyrazole-4-carboxamide], for which the IC90 in assay [2] stood at 242 nM.

`Cc1[nH]nc2c1CC[C@H]2NC(=O)c1cn(Cc2ccc(N3CC4C(C3)C4(F)F)nc2C(F)F)cn1` (stereo partly drawn) [Example 11, 1-[(6-{6,6-Difluoro-3-azabicyclo[3.1.0]hexan-3-yl}-2-(difluoromethyl)pyridin-3-yl)methyl]-N-[(6R)-3-methyl-2H,4H,5H,6H-cyclopenta-[c]pyrazol-6-yl]-1H-imidazole-4-carboxamide] gave an IC90 in assay [2] of 236 nM. In assay [1], `Cc1[nH]nc2c1CC[C@H]2NC(=O)c1cnn(Cc2cnc(N3CC4CC4C3)cc2C(F)(F)F)c1` (stereo partly drawn) [Example 12, 1-[(6-{3-Azabicyclo[3.1.0]hexan-3-yl}-4-(trifluoromethyl)-pyridin-3-yl)methyl]-N-[(6R)-3-methyl-2H,4H,5H,6H-cyclopenta[c]pyrazol-6-yl]-1H-pyrazole-4-carboxamide] returned an IC50 of 2.6 nM. Consider `Cc1[nH]nc2c1CC[C@H]2NC(=O)c1cnn(Cc2ccc(N3CC4CC4C3)nc2C(F)(F)F)c1` (stereo partly drawn) [Example 13, 1-[(6-{3-Azabicyclo[3.1.0]hexan-3-yl}-2-(trifluoromethyl)pyridin-3-yl)methyl]-N-[(6R)-3-methyl-2H,4H,5H,6H-cyclopenta[c]pyrazol-6-yl]-1H-pyrazole-4-carboxamide], for which the Ki in assay [3] was over 10000 nM. In assay [1], this compound yielded a 50% inhibitory concentration (IC50) of 1.9 nM. In addition, in assay [2], the IC90 is 746 nM.

Values taken from patent US11851418B2, “Heteroaromatic carboxamide derivatives as plasma kallikrein inhibitors” (Boehringer Ingelheim International GmbH, priority 2020, dated 2023).
